The results in this text go back to ChEMBL document CHEMBL3045706, “Synthesis of licochalcones and inhibition effects on radical-induced oxidation of DNA” (Med Chem Res, 2013).

Common to all, as to format: functional
Test [1] in a line: Antioxidant activity assessed as hydroxyl radical-induced DNA oxidation at 0.2 mM after 30 min by TBARS assay (reference value: 100%).
Test [2] can be described thus: Inhibition of AAPH-induced DNA oxidation by TBARS assay.
A short description of test [3]: Inhibition of Cu2+/GSH-induced DNA oxidation at 0.2 mM by TBARS assay.

Activity calls are given as the source filed them. No cut-off for these calls is given here.

For the compound `C=C(C)C(C)c1cc(/C=C/C(=O)c2ccc(O)cc2O)cc(OC)c1O` (centres undefined), in test [1], the Activity is 106%. Besides, the inhibition result in test [2] and in test [3] was “Active” throughout.

For `C=C(C)C(C)c1cc(/C=C/C(=O)c2ccc(O)cc2)cc(OC)c1O` (centres undefined), the Activity in test [1] was determined as 91.3%. Further, the inhibition entry in test [2] and in test [3] was “Active” in each case.

Consider `C=C(C)C(C)c1cc(/C=C/C(=O)c2c(O)cc(O)cc2O)cc(OC)c1O` (centres undefined), for which the Activity in test [1] is 98.2%. Besides, the inhibition entry in test [2] and in test [3] was “Active” throughout.
